US7390806B2, “Antibiotics containing borinic acid complexes and methods of use” (Anacor Pharmaceuticals, Inc., priority 2002, dated 2008)
In brackets after ≈: the same amount, converted by molar mass. Read-outs that look alike come from different tables or passages of the source.

Key:
M. tuberculosis H37Rv = test: Anti-mycobacterium in vitro activity, H37Rv; format: cell-based, Mycobacterium tuberculosis; conditions: Sensitive strain; for MIC: Mycobacterium tuberculosis, H37RV
S. aureus ATCC 29213 = test: MIC determination, S. aureus ATCC 29213; format: cell-based, Staphylococcus aureus; conditions: for MIC S. aureus ATCC 29213: Table 1; for MIC: Staphylococcus aureus, read-out: MIC S. aureus ATCC 29213
E. faecalis ATCC 29212 = test: MIC determination, E. faecalis ATCC 29212; format: cell-based, Enterococcus faecalis; conditions: for MIC E. faecalis ATCC 29212: Table 1; for MIC: Enterococcus faecalis, read-out: MIC E. faecalis ATCC 29212
E. faecium CT-26 = test: MIC determination, E. faecium CT-26; format: cell-based, Enterococcus faecium; conditions: for MIC E. faecium CT-26: Table 1; for MIC: Enterococcus faecium, read-out: MIC E. faecium CT-26
S. pneumoniae ATCC 6301 = test: MIC determination, S. pneumoniae ATCC 6301; format: cell-based, Streptococcus pneumoniae; conditions: for MIC S. pneumoniae ATCC 6301: Table 1; for MIC: Streptococcus pneumoniae
[1] = system: S. epidermidis ATCC 12228; test: MIC determination, S. epidermidis ATCC 12228; format: cell-based, Staphylococcus epidermidis; conditions: for MIC S. epidermidis ATCC 12228: Table 1; for MIC: Staphylococcus epidermidis, read-out: MIC S. epidermidis ATCC 12228
[2] = system: Microsporum canis ATCC 10214; test: Antifungal in vitro MIC, Microsporum canis; format: cell-based; conditions: Microsporum canis, ATCC10214; percent inhibition >= 80%; read-out: MIC Microsporum canis ATCC 10214
[3] = system: Trichophyton mentagrophytes ATCC 10270; test: Antifungal in vitro MIC, Trichophyton mentagrophytes; format: cell-based; conditions: Trichophyton mentagrophytes, ATCC10270; percent inhibition >= 80%; read-out: MIC Trichophyton mentagrophytes ATCC 10270
[4] = system: Candida parapsilosis ATCC 22019; test: Antifungal in vitro MIC, Candida parapsilosis; format: cell-based; conditions: Lodderomyces parapsilosis, ATCC22019; percent inhibition >= 80%; read-out: MIC Candida parapsilosis ATCC 22019
[5] = system: Candida glabrata ATCC 15126; test: Antifungal in vitro MIC, Candida glabrata; format: cell-based; conditions: Nakaseomyces glabratus, ATCC15126; percent inhibition >= 80%; read-out: MIC Candida glabrata ATCC 15126
[6] = system: Aspergillus fumigatus ATCC 204305; test: Antifungal in vitro MIC, Aspergillus fumigatus; format: cell-based; conditions: Aspergillus fumigatus, ATCC204305; percent inhibition >= 80%; read-out: MIC Aspergillus fumigatus ATCC 204305
H. influenzae ATCC 49766 = test: MIC determination, H. influenzae ATCC 49766; format: cell-based, Haemophilus influenzae; conditions: Haemophilus influenzae, ATCC49766; Table 2
[7] = system: M. catarrhalis ATCC 25238; test: MIC determination, M. catarrhalis ATCC 25238; format: cell-based; conditions: for MIC: Moraxella catarrhalis, ATCC25238, Table 1, read-out: MIC M. catarrhalis ATCC 25238
[8] = ATCC6301, Table 1, read-out: MIC S. pneumoniae ATCC 6301
[9] = ATCC6301, Table 2, read-out: MIC S. pneumonia ATCC 6301

**Q.** Which MIC (M. tuberculosis H37Rv) does the source give for [H]/N=C(/N)N[C@H]1[C@H](O)[C@@H](O)[C@H](O[C@@H]2O[C@@H](C)[C@](O)(C=O)[C@H]2O[C@@H]2O[C@@H](CO)[C@H](O)[C@@H](O)[C@@H]2NC)[C@@H](N/C(N)=N\[H])[C@@H]1O [Streptomycin] here?
**A.** The MIC was less than 2 µg/mL.

**Q.** What does the source list for Oc1cccc2cccnc12 [Compound 75, 8-hydroxyquinoline]?
**A.** MIC S. aureus ATCC 29213 (S. aureus ATCC 29213): 2 micrograms per ml; MIC E. faecalis ATCC 29212 (E. faecalis ATCC 29212): 64 micrograms per ml; MIC E. faecium CT-26 (E. faecium CT-26): 4 micrograms per ml; MIC S. pneumoniae ATCC 6301 (S. pneumoniae ATCC 6301): 2 micrograms per ml; M. tuberculosis MIC H37Rv (M. tuberculosis H37Rv): 0.775 µg/mL; MIC S. epidermidis ATCC 12228 [1]: 1 micrograms per ml

**Q.** For OC(Cn1cncn1)(Cn1cncn1)c1ccc(F)cc1F [Fluconazole, reference compound], which MIC [2] is on record?
**A.** The MIC was 16 µg/mL (≈ 52.2 µM).

**Q.** And the MIC [3]?
**A.** Its MIC is 16 µg/mL (≈ 52.2 µM).

**Q.** And the MIC [4]?
**A.** Its MIC is 2.5 µg/mL (≈ 8.16 µM).

**Q.** And the MIC [5]?
**A.** The MIC was 3 µg/mL (≈ 9.8 µM).

**Q.** What about the MIC [6] of the same molecule?
**A.** Its MIC is greater than 64 µg/mL.

**Q.** How did the MIC (M. tuberculosis H37Rv) turn out when N[C@@H]1CON=C1O [cycloserine] was run?
**A.** The MIC was 8 µg/mL (≈ 78.4 µM).

**Q.** With Nc1ccc(C(=O)O)c(O)c1 [p-aminosalicylate] as the molecule, how does the “M. tuberculosis MIC H37Rv” value (M. tuberculosis H37Rv) read?
**A.** Its value is less than 0.25 µg/mL.

**Q.** How did the MIC (S. aureus ATCC 29213; ATCC29213, Table 1) turn out when CO/N=C(\C(=O)N[C@@H]1C(=O)N2C(C(=O)O)=C(CSc3nc(=O)c(=O)[nH]n3C)CS[C@H]12)c1csc(N)n1 [Ceftriaxone, reference compound] was run?
**A.** The MIC was 2 µg/mL (≈ 3.61 µM).

**Q.** And the MIC (S. aureus ATCC 29213; ATCC29213, Table 2)?
**A.** Its MIC is 2 µg/mL (≈ 3.61 µM).

**Q.** What about the MIC (E. faecalis ATCC 29212; ATCC29212, Table 1) of the same molecule?
**A.** Its MIC is 64 µg/mL (≈ 115 µM).

**Q.** And the MIC (E. faecalis ATCC 29212; ATCC29212, Table 2)?
**A.** Its MIC is 64 µg/mL (≈ 115 µM).

**Q.** And the MIC (H. influenzae ATCC 49766)?
**A.** The MIC was 0.12 µg/mL (≈ 0.216 µM).

**Q.** And the MIC (E. faecium CT-26; CT26, Table 1)?
**A.** Its MIC is 64 µg/mL (≈ 115 µM).

**Q.** And the MIC (E. faecium CT-26; CT26, Table 2)?
**A.** Its MIC is 64 µg/mL (≈ 115 µM).

**Q.** What about the MIC (S. pneumoniae ATCC 6301; [8]) of the same molecule?
**A.** The MIC was 0.125 µg/mL (≈ 0.225 µM).

**Q.** And the MIC (S. pneumoniae ATCC 6301; [9])?
**A.** The MIC was less than 0.125 µg/mL.

**Q.** What about the MIC ([1]; ATCC12228, Table 1) of the same molecule?
**A.** The MIC was 1 µg/mL (≈ 1.8 µM).

**Q.** What about the MIC ([1]; ATCC12228, Table 2) of the same molecule?
**A.** The MIC was 1 µg/mL (≈ 1.8 µM).

**Q.** And the MIC [7]?
**A.** Its MIC is 0.125 µg/mL (≈ 0.225 µM).

**Q.** For NC[C@H]1O[C@H](O[C@H]2[C@H](O)[C@@H](O[C@H]3O[C@H](CO)[C@@H](O)[C@H](N)[C@H]3O)[C@H](N)C[C@@H]2N)[C@H](O)[C@@H](O)[C@@H]1O [Kanamycin], which MIC (M. tuberculosis H37Rv) is on record?
**A.** Its MIC is less than 2 µg/mL.

**Q.** For Oc1cccc2cccnc12 [Compound 55, 8-hydroxyquinoline], which “MIC S. aureus ATCC 29213” value (S. aureus ATCC 29213) is on record?
**A.** Its value is 2 micrograms per ml.

**Q.** And the “MIC E. faecalis ATCC 29212” value (E. faecalis ATCC 29212)?
**A.** The value was 4 micrograms per ml.

**Q.** What about the “MIC E. faecium CT-26” value (E. faecium CT-26) of the same molecule?
**A.** The value was 2 micrograms per ml.

**Q.** And the “MIC S. pneumoniae ATCC 6301” value (S. pneumoniae ATCC 6301)?
**A.** Its value is 2 micrograms per ml.

**Q.** What about the “M. tuberculosis MIC H37Rv” value (M. tuberculosis H37Rv) of the same molecule?
**A.** The value was 0.775 µg/mL.

**Q.** What about the “MIC S. epidermidis ATCC 12228” value [1] of the same molecule?
**A.** The value was 1 micrograms per ml.

**Q.** What about the “MIC M. catarrhalis ATCC 25238” value ([7]; Table 1) of the same molecule?
**A.** Its value is 4 micrograms per ml.

**Q.** Which MIC (M. tuberculosis H37Rv) does the source give for CCc1cc(C(N)=S)ccn1 [Ethionamide] here?
**A.** Its MIC is 1 µg/mL (≈ 6.02 µM).

**Q.** With Cc1onc(-c2ccccc2Cl)c1C(=O)N[C@@H]1C(=O)N2[C@@H]1SC(C)(C)[C@@H]2C(=O)O [Cloxacillin, reference compound] as the molecule, how does the MIC (S. aureus ATCC 29213; ATCC29213, Table 1) read?
**A.** Its MIC is 0.125 µg/mL (≈ 0.287 µM).

**Q.** And the MIC (S. aureus ATCC 29213; ATCC29213, Table 2)?
**A.** Its MIC is 0.12 µg/mL (≈ 0.275 µM).

**Q.** And the MIC (E. faecalis ATCC 29212; ATCC29212, Table 1)?
**A.** The MIC was 16 µg/mL (≈ 36.7 µM).

**Q.** And the MIC (E. faecalis ATCC 29212; ATCC29212, Table 2)?
**A.** The MIC was 16 µg/mL (≈ 36.7 µM).

**Q.** And the MIC (H. influenzae ATCC 49766)?
**A.** The MIC was 8 µg/mL (≈ 18.4 µM).

**Q.** And the MIC (E. faecium CT-26; CT26, Table 1)?
**A.** Its MIC is 64 µg/mL (≈ 147 µM).

**Q.** What about the MIC (E. faecium CT-26; CT26, Table 2) of the same molecule?
**A.** Its MIC is 64 µg/mL (≈ 147 µM).

**Q.** What about the MIC (S. pneumoniae ATCC 6301; [8]) of the same molecule?
**A.** Its MIC is 0.125 µg/mL (≈ 0.287 µM).

**Q.** What about the MIC (S. pneumoniae ATCC 6301; [9]) of the same molecule?
**A.** Its MIC is 0.12 µg/mL (≈ 0.275 µM).

**Q.** What about the MIC ([1]; ATCC12228, Table 1) of the same molecule?
**A.** The MIC was 0.25 µg/mL (≈ 0.574 µM).

**Q.** And the MIC ([1]; ATCC12228, Table 2)?
**A.** Its MIC is 0.25 µg/mL (≈ 0.574 µM).

**Q.** What about the MIC [7] of the same molecule?
**A.** Its MIC is 1 µg/mL (≈ 2.29 µM).

**Q.** For CC[C@@H](CO)NCCN[C@@H](CC)CO [Ethambutol], which MIC (M. tuberculosis H37Rv) is on record?
**A.** Its MIC is less than 1 µg/mL.

**Q.** Oc1cccc2cccnc12 [Compound 50, 8-hydroxyquinoline] was tested. Which “MIC S. aureus ATCC 29213” value (S. aureus ATCC 29213) did it give?
**A.** Its value is 2 micrograms per ml.

**Q.** What about the “MIC E. faecalis ATCC 29212” value (E. faecalis ATCC 29212) of the same molecule?
**A.** The value was 4 micrograms per ml.

**Q.** And the “MIC E. faecium CT-26” value (E. faecium CT-26)?
**A.** Its value is 4 micrograms per ml.

**Q.** And the “MIC S. pneumoniae ATCC 6301” value (S. pneumoniae ATCC 6301)?
**A.** The value was 2 micrograms per ml.

**Q.** What about the “M. tuberculosis MIC H37Rv” value (M. tuberculosis H37Rv) of the same molecule?
**A.** The value was 0.387 µg/mL.

**Q.** What about the “MIC S. epidermidis ATCC 12228” value [1] of the same molecule?
**A.** Its value is 2 micrograms per ml.
